Read-outs that look alike come from different tables or passages of the source.
Tests used:
[1] = target: CUL4A-DDB1-BPB interaction (Homo sapiens (Human), UniProt Q16531); assay: AlphaLISA in vitro binding assay, CUL4A and DDB1-BPB binding; details: inhibition of CUL4A and DDB1-BPB binding
Procedure, shortened: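 Compound disruption of CUL4A binding to DDB1-BPB measured by AlphaLISA/AlphaScreen bead proximity in 384-well format. IC50 from nonlinear log(inhibitor)-vs-response curve fit.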

[2] = system: CUL4A^low T47D breast cancer cells; assay: Cell killing in CUL4-low T47D cells (CellTiter Glo); type: cell-based; details: Homo sapiens, 192 h, 8 days treatment
Protocol: EC50 indicates compound concentration can cause 50% cell killing in CUL4° ^w T47D cells (see Table 1, column 7). CUL4A^low T47D breast cancer cells were seeded in 96 well plate. […] Change fresh medium and compounds every 48 hours. After 8 days treatment, cell viability was examined by using CellTiter Glo kit (Promega #7570) following the manufacturer's guidelines (https://www.promega.com/-/media/files/resources/protocols/technical-bulletins/0/celltiter-glo-luminescent-cell-viability-assay-protocol.pdf?rev=0d95c232094b41daa06d0c110d1d916f&sc_lang=en, hereby incorporated by reference in its entirety for all purposes). EC50 concentration was calculated by Prism 8 XY analysis nonlinear regression (curve fit-Log(inhibitor) vs response). EC50 indicates cell killing potential in CUL4 low T47D cell line and the EC50 difference between CUL4^high and CUL4^low cells indicates the small molecule cause specific cell killing.
CUL4A^high MDA-MB-468, CUL4^low (T47D), and MCF7 breast cancer cells were seeded in 96 well plates separately. […] Replace with fresh medium and compounds every 48 hours. After 8 days treatment, cell viability was examined by CellTiter Glo kit (Promega #7570). First, transfer the appropriate volume (10 ml for Cat. #G7570) of CellTiter-Glo® Buffer into the amber bottle containing CellTiter-Glo® Substrate to reconstitute the lyophilized enzyme/substrate mixture. This forms the CellTiter-Glo® Reagent. Second, add CellTiter-Glo® Reagent in an equal volume (100 μl per well for 96-well plates) to all wells. Mix contents for 2 minutes on an orbital shaker to induce cell lysis. Incubate at room temperature for 15 minutes to stabilize luminescent signal. Then record luminescence. EC50 concentration was calculated by Prism 8 XY analysis nonlinear regression (curve fit-Log(inhibitor) vs response).

DDB1-BPB [3] = target: T1, DDB1-BPB (Homo sapiens (Human), UniProt Q16531); assay: Surface Plasmon Resonance (SPR) binding to DDB1-BPB; details: DDB1-BPB immobilized
T1 sequence (Q16531 403-706): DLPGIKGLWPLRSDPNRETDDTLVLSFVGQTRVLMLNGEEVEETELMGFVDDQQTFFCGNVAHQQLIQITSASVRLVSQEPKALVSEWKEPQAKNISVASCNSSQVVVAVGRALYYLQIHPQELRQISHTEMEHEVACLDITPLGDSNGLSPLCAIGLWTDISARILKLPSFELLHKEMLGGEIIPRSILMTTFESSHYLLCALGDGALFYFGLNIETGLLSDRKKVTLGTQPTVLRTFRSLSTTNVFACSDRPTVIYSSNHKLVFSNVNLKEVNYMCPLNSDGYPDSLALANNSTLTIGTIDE
Excerpt: Kd represents dissociation constant, which measures the affinity of small molecule binding to the scaffold DDB1-BPB by Surface Plasmon Resonance (SPR) (https://www.bio-rad.com/webroot/web/pdf/lsr/literature/Bulletin_6414.pdf, hereby incorporated by reference in its entirety) (see Table 1, column 8). To assess the interaction between DDB1-BPB and compounds, a multi-parametric SPR instrument (BioRad ProteON XPR360) was used. DDB1-BPB was immobilized onto the GLH sensor surface in a variety of ways as follows: flow channels were activated in parallel with 1/20 diluted EDC/SNHS. DDB1-BPB was diluted to 0.1 mg/mL in sodium acetate pH 4.5 and directly coupled onto channel for 4 min. Excess reactive esters were blocked with a 5-min injection of 1 M ethanolamine. Mean immobilization levels were 17,000 RU with <2% variation along a strip. One channel was left unmodified to provide an additional reference surface. Next, the binding kinetics of compounds on surfaces was determined in a single injection using a “one-shot” kinetic mode. Typically, compound was prepared as a twofold serial dilution (0, 3.125, 6.25, 12.5, 25, 50 μM) and injected for 60 s at […]. Dissociation was monitored for 800 s. Surfaces were regenerated with multiple 30-s pulses of 60 mM phosphoric acid so that the experiment could be reproduced. All resulting sensor grams were collected and analyzed using the ProteOn manager software.

[4] = system: CUL4A^high MDA-MB-468 breast cancer cells; assay: Cell killing in CUL4-high MDA-MB-468 cells (CellTiter Glo); type: cell-based; details: Homo sapiens, 8 days treatment
Procedure, shortened: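 Cells seeded, treated after 24 h with DMSO or compound (0 to 20 μM). Medium and compound replaced every 48 h over 8 days. Viability measured by CellTiter-Glo luminescence; EC50 (50% killing) from log(inhibitor) vs response nonlinear fit.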

[5] = Dynamic light scattering (DLS) solubility assay; type: physicochemical; details: normalized intensity ratio of 25 μM compound vs DMSO, in PBS
Procedure, shortened: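 Compounds diluted from DMSO into PBS at final concentrations of 200 μM to 0.78 μM, in triplicate, and aggregation measured by light scattering intensity. A ratio above 2 scores insoluble (−), below 2 soluble (+), and around 2 (+/−).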

[6] = system: UV-induced CUL4-dependent DDB2 degradation in MEF-F-DDB2 cells; assay: Cell-based assay for inhibition of UV-induced CUL4-dependent DDB2 degradation; design: key: (+) means that the normalized DDB2/α-tubulin ratio is higher in the compound treated sample than DMSO treated sample; (−) means that no change happens between compound treated sample with control sample; details: DDB2/α-tubulin by Western blot
Procedure, shortened: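 MEF cells expressing Flag-DDB2, in serum-free medium, treated with DMSO or compound, UV-irradiated (254 nm, 0.2 W/m^2), then harvested. Flag-DDB2 measured by western blot against α-tubulin; (+) denotes normalized DDB2/α-tubulin above DMSO, (−) no change.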

DDB1-BPB [7] = target: T1, DDB1-BPB; assay: Microscale Thermophoresis (MST) binding to DDB1-BPB; details: labeled DDB1-BPB, 25° C.
Protocol: Kd represents dissociation constant, which measures the affinity of small molecule binding to the scaffold DDB1-BPB by Microscale Thermophoresis (MST) (see Table 1, column 9). MST experiments were performed on a Monolith NT 115 system (Nano Temper Technologies, Munich, Germany) using 100% LED and 60% IR-laser power (https://physiology.case.edu/media/eq manuals/eq_manual_nano-temper_mst_starting_guide.pdf, hereby incorporated by reference in its entirety for all purposes). The labeling of DDB1-BPB ([…]) was performed in labeling buffer with NHS-Red reactive dye (30 μM) (Nanotemper), which reacts efficiently with the primary amines of the proteins to form a stable dye protein conjugates. The labeling reaction was carried out at RT. A 16-point serial dilution (1:1) was prepared for compound at the final concentration ranged from 200 µM to 3 nM in PBS containing 0.05% tween. The samples were filled into Premium capillaries and measurements were conducted at 25° C. An equation implemented by the software MO-S002 MO Affinity Analysis, provided by the manufacturer, was used for fitting normalized fluorescence values at different concentrations of ligands.

MCF7 breast cancer cells = assay: Cell killing in MCF7 cells (CellTiter Glo); type: cell-based; details: Homo sapiens, MCF7, 192 h; Table 3, 0 to 20 μM compound, 8 days treatment
Protocol: CUL4A^high MDA-MB-468, CUL4^low (T47D), and MCF7 breast cancer cells were seeded in 96 well plates separately. Cells were treated with DMSO, or from 0 to 20 μM compound respectively. Replace with fresh medium and compounds every 48 hours. After 8 days treatment, cell viability was examined by CellTiter Glo kit (Promega #7570). First, transfer the appropriate volume (10 ml for Cat. #G7570) of CellTiter-Glo® Buffer into the amber bottle containing CellTiter-Glo® Substrate to reconstitute the lyophilized enzyme/substrate mixture. This forms the CellTiter-Glo® Reagent. Second, add CellTiter-Glo® Reagent in an equal volume (100 μl per well for 96-well plates) to all wells. Mix contents for 2 minutes on an orbital shaker to induce cell lysis. Incubate at room temperature for 15 minutes to stabilize luminescent signal. Then record luminescence. EC50 concentration was calculated by Prism 8 XY analysis nonlinear regression (curve fit-Log(inhibitor) vs response).

[8] = T47D cells, read-out: EC50 CUL4-Low Cells (cell killing)
[9] = 192 h, MDA-MB-468 cells, read-out: EC50 CUL4-High Cells (cell killing)

Sequence of CUL4A-DDB1-BPB interaction (Q16531 403-706): as above

SMILES | IC50 [1] [µM] | EC50 [2, 8] [µM] | Kd (DDB1-BPB [3]) [µM] | EC50 [4, 9] [µM] | Solubility (DLS Assay) [5] | Degradation Inhibition (inhibition of UV-induced DDB2 degradation) [6] | Kd (DDB1-BPB [7]) [µM] | EC50 ([2]; T47D, Table 3, 0 to 20 μM compound, read-out: EC50 OF cell killing, T47D) [µM] | EC50 (MCF7 breast cancer cells) [µM] | EC50 ([4]; MDA-MB-468, 192 h, Table 3, 0 to 20 μM compound, read-out: EC50 OF cell killing, MDA-MB-468) [µM] | AlphaLisa IC50 [1] | Kd (MST) (DDB1-BPB [7]) | Kd (SPR) (DDB1-BPB [3])
CS(=O)(=O)c1ccc(-c2nc(C(=O)O)cc3c2[nH]c2ccccc23)cc1 [PA35, 1-(4-methylsulfonylphenyl)-9H-pyrido[3,4-b]indole-3-carboxylic acid] | 1.06 ± 0.51 | > 100 | 5.58 | > 100 |  |  |  |  |  |  |  |  | 
CS(=O)(=O)c1ccc(-c2nc(C(=O)O)cc3c2[nH]c2ccc(O)cc23)cc1 [PA73] | 0.73 ± 0.35 | > 100 | 7.34 | > 100 | +/− |  |  |  |  |  |  |  | 
CS(=O)(=O)N(Cc1ccccc1)c1ccc(-c2nc(C(=O)O)cc3c2[nH]c2ccccc23)cc1 [PA76, 1-[4-[benzyl(methylsulfonyl)amino]phenyl]-9H-pyrido[3,4-b]indole-3-carboxylic acid] | 1.52 ± 1.13 | > 100 | 4.54 | 28.9 |  | + |  |  |  |  |  |  | 
CN(c1ccc(-c2nc(C(=O)O)cc3c2[nH]c2cc(F)ccc23)cc1)S(=O)(=O)c1ccccc1 [PA1-3, 7-fluoro-1-(4-(N-methylphenylsulfonamido)phenyl)-9H-pyrido[3,4-b]indole-3-carboxylic acid] | 0.53 | 3.42 |  | 0.48 |  |  | 0.72 | 3.42 | 3.36 | 0.49 |  |  | 
COC(=O)c1cc2c([nH]c3cccc(F)c32)c(-c2ccc(N(C)S(=O)(=O)c3ccccc3)cc2)n1 [PA99-1, methyl 5-fluoro-1-(4-(N-methylphenylsulfonamido)phenyl)-9H-pyrido[3,4-b]indole-3-carboxylate] |  | > 100 |  | 3.47 | -(insoluble) | + | 321 |  |  |  | Neg |  | 
Cc1ccc2[nH]c3c(-c4ccc(S(C)(=O)=O)cc4)nc(C(=O)O)cc3c2c1 [PA72] | 0.78 ± 0.02 |  | 4.57 |  | +/− | − |  |  |  |  |  |  | 
CN(c1ccc(-c2nc(C(=O)O)cc3c2[nH]c2ccc(F)cc23)cc1)S(=O)(=O)c1cccnc1 [PA2-6, 6-fluoro-1-(4-(N-methylpyridine-3-sulfonamido)phenyl)-9H-pyrido[3,4-b]indole-3-carboxylic acid] | 0.47 | > 100 |  | 22.3 | -(insoluble) | − | 25.5 |  |  |  |  |  | 
CN(c1ccc(-c2nc(C(=O)O)cc3c2[nH]c2cc(-c4ccccc4)ccc23)cc1)S(=O)(=O)c1ccccc1 [PA115, 1-[4-[benzenesulfonyl(methyl)amino]phenyl]-7-phenyl-9H-pyrido[3,4-b]indole-3-carboxylic acid] | 17.4 ± 7.42 | 3.86 |  | 2.15 | -(insoluble) |  | 257 |  |  |  |  |  | 
O=C(O)c1cc2c([nH]c3ccccc32)c(-c2ccc(NCc3ccc(F)cc3)cc2)n1 [PA68, 1-[4-[(4-fluorophenyl)methylamino]phenyl]-9H-pyrido[3,4-b]indole-3-carboxylic acid] | 2.33 ± 0.86 | 11 | 13.2 | 9.12 |  |  |  |  |  |  |  | Insoluble | 
Cc1ccc2c(c1)[nH]c1c(-c3ccc(N(C)S(=O)(=O)c4ccccc4)cc3)nc(C(=O)O)cc12 [PA106, 1-[4-[benzenesulfonyl(methyl)amino]phenyl]-7-methyl-9H-pyrido[3,4-b]indole-3-carboxylic acid] | 7.73 | > 100 |  | 7.98 | +/− |  | 443 |  |  |  |  |  | 
COC(=O)c1cccc(-c2nc(C(=O)OC(C)(C)C)cc3c2[nH]c2ccccc23)c1 [PA43] |  | 48.2 |  | 28.3 | -(insoluble) |  |  |  |  |  | Neg |  | no binding

— patent US20250188078A1, “SMALL MOLECULE INHIBITORS OF THE CRL4 UBIQUITIN LIGASE” (Cornell University, priority 2022, published 2025)
